These results are taken from ChEMBL document CHEMBL1201862, “PubChem BioAssay data set” (2004).

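Following 48 hours of exposure in 96-well plates, responses at five concentrations were used to interpolate endpoints linearly. At the GI50, growth is halved.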 Calls of active or inactive are those of the source. Cut-off read from the data, not from the text of the source: active = GI50 up to about 1.1 µM and inactive = higher.

Test systems include 786-0; A549; ACHN; CAKI-1; HL-60; HOP-62; IGROV-1; K562; LOX IMVI; M14; Malme-3M; NCI-H23; NCI-H522; NCI/ADR-RES; RPMI-8226; SN12C; TK-10; UACC-257; UACC-62; UO-31.
What all share (experiment): inhibition of tumour cell growth, NCI panel, 48 h

As for `C=C(NC(=O)C(=C)NC(=O)c1csc(C2=NC3c4csc(n4)C4NC(=O)c5csc(n5)C(C(C)(O)C(C)O)NC(=O)C5CSC(=N5)/C(=C/C)NC(=O)C(C(C)O)NC(=O)c5csc(n5)C3(CC2)NC(=O)C(C)NC(=O)C(=C)NC(=O)C(=C)NC(=O)C(C(C)C)NC2C=Cc3c(C(C)O)cc(nc3C2O)C(=O)OC4C)n1)C(N)=O` (stereo not given), the GI50 in the test with 786-0 was 1.29 µM (inactive); with A549 it was 5.42 µM (inactive); in the test with ACHN, 2.59 µM (inactive); in the test on CAKI-1, 3.69 µM (inactive); with HL-60, 2.24 µM (inactive); in the test with HOP-62, 19.6 µM (inactive). The GI50 in the test on IGROV-1 was 7.28 µM (inactive); in the test with K562, 0.774 µM (active); in the test with LOX IMVI, 0.357 µM (active); in the test with M14 it was 2.62 µM (inactive); with Malme-3M, 0.239 µM (active); in the test with NCI-H23 it was 7.13 µM (inactive). Moreover, the GI50 was 0.158 µM (active) in the test with NCI-H522; > 42.2 µM (inactive) in the test with NCI/ADR-RES; 1.29 µM (inactive) in the test on RPMI-8226; 3.75 µM (inactive) in the test on SN12C; 4.18 µM (inactive) with TK-10; 2.91 µM (inactive) in the test on UACC-257. In addition, the GI50 in the test on UACC-62 was 0.54 µM (active); in the test with UO-31, 60.5 µM (inactive).
As to `c1ccc(-c2nnc(-c3ccccn3)c3c2C[C@@H]2C[C@@H]4Cc5c(-c6ccccn6)nnc(-c6ccccn6)c5[C@@H]4[C@H]32)nc1`, the GI50 was 33.7 µM (inactive) in the test with 786-0; 29 µM (inactive) in the test with A549; 24.9 µM (inactive) with ACHN; 58.7 µM (inactive) in the test on CAKI-1; 24.7 µM (inactive) in the test with HL-60; 41.2 µM (inactive) in the test on HOP-62. The GI50 is 58.5 µM (inactive) in the test on IGROV-1; 18.3 µM (inactive) with K562; 55.5 µM (inactive) in the test with LOX IMVI; 20 µM (inactive) with M14; 75.7 µM (inactive) in the test on Malme-3M; > 100 µM (inactive) in the test on NCI-H23. The GI50 was 96.6 µM (inactive) with NCI-H522; 32.7 µM (inactive) with NCI/ADR-RES; 44.7 µM (inactive) in the test with RPMI-8226; 48.8 µM (inactive) with SN12C; > 100 µM (inactive) in the test on TK-10; 66.7 µM (inactive) in the test with UACC-257. Also, the GI50 in the test with UACC-62 was 41.7 µM (inactive); with UO-31 it was 21.7 µM (inactive).
In the case of `Nc1cc(Cl)cc2cc(Cl)cnc12`, the GI50 was > 100 µM (inactive) in the test with 786-0; > 100 µM (inactive) in the test on A549; > 100 µM (inactive) with ACHN; > 100 µM (inactive) in the test with CAKI-1; 43.1 µM (inactive) with HL-60; > 100 µM (inactive) in the test with HOP-62. The GI50 in the test with IGROV-1 was 93.1 µM (inactive); in the test on K562, > 100 µM (inactive); in the test on LOX IMVI, > 100 µM (inactive); in the test on M14 it was > 100 µM (inactive); in the test on Malme-3M it was > 100 µM (inactive); with NCI-H23, > 100 µM (inactive). For the same compound, the GI50 in the test on NCI-H522 is 57 µM (inactive); with NCI/ADR-RES, > 100 µM (inactive); with RPMI-8226 it was > 100 µM (inactive); with SN12C it was > 100 µM (inactive); in the test on TK-10, > 100 µM (inactive); in the test on UACC-257, > 100 µM (inactive). Besides, the GI50 was 75.2 µM (inactive) in the test on UACC-62 and 34.8 µM (inactive) in the test with UO-31.
Take `ClC1=NN=C(c2c[nH]c3ccccc23)CC1NCc1ccccc1` (stereo not given): the GI50 in the test with 786-0, in the test on A549, in the test on ACHN, with CAKI-1, with HL-60 and in the test with HOP-62 was > 100 µM (inactive) each time. Also, the GI50 is 97.7 µM (inactive) with IGROV-1; > 100 µM (inactive) with K562; > 100 µM (inactive) in the test on LOX IMVI; > 100 µM (inactive) with M14; > 100 µM (inactive) in the test on Malme-3M; > 100 µM (inactive) in the test with NCI-H23. Further, the GI50 in the test with NCI-H522, with NCI/ADR-RES, in the test on RPMI-8226, with SN12C, with TK-10 and in the test with UACC-257 was > 100 µM (inactive) throughout. Moreover, the GI50 with UACC-62 and with UO-31 was > 100 µM (inactive) each time.
Turning to `CS(=O)(=O)c1nc(-c2cc3c(c(S(C)(=O)=O)n2)CCC3)cc2c1CCCCC2`, the GI50 in the test on 786-0 was 70.8 µM (inactive); in the test on A549 it was > 100 µM (inactive); in the test with ACHN it was 45 µM (inactive); in the test on CAKI-1, 21 µM (inactive); in the test with HL-60, > 100 µM (inactive); with HOP-62 it was 16.9 µM (inactive). Moreover, the GI50 with IGROV-1 was 20.1 µM (inactive); in the test with K562 it was > 100 µM (inactive); in the test with LOX IMVI, > 100 µM (inactive); in the test with M14, > 100 µM (inactive); in the test with Malme-3M, 34.5 µM (inactive); with NCI-H23, 41.4 µM (inactive). For the same compound, the GI50 in the test with NCI-H522 is 15.2 µM (inactive); with NCI/ADR-RES it was 49.5 µM (inactive); with RPMI-8226, > 100 µM (inactive); with SN12C it was > 100 µM (inactive); with TK-10, 42.7 µM (inactive); in the test on UACC-257 it was > 100 µM (inactive). The GI50 is 22.9 µM (inactive) in the test on UACC-62 and 0.834 µM (active) with UO-31.
In the case of `Cc1ccc(-n2c(=O)c3nn4c(=O)n(-c5ccc(C)cc5)c(=O)c4nn3c2=O)cc1`, the GI50 with 786-0, in the test with A549, in the test with ACHN, in the test with CAKI-1, in the test on HL-60 and in the test on HOP-62 was > 100 µM (inactive) each time. The GI50 in the test on IGROV-1, with K562, in the test with LOX IMVI, in the test with M14, with Malme-3M and in the test with NCI-H23 was > 100 µM (inactive) each time. The GI50 with NCI-H522, in the test on NCI/ADR-RES, in the test on RPMI-8226, in the test with SN12C, with TK-10 and in the test with UACC-257 was > 100 µM (inactive) in each case. The GI50 with UACC-62 and with UO-31 was > 100 µM (inactive) throughout.
`NC(=O)N/N=C1\CC2C3CC4C2C4C13` (stereo not given): the GI50 in the test with 786-0, in the test with A549, in the test on ACHN, with CAKI-1, in the test with HL-60 and in the test with HOP-62 was > 100 µM (inactive) throughout. For the same compound, the GI50 in the test with IGROV-1, in the test on K562, in the test on LOX IMVI, in the test on M14, with Malme-3M and with NCI-H23 was > 100 µM (inactive) each time. Moreover, the GI50 in the test on NCI-H522, in the test on NCI/ADR-RES, in the test with RPMI-8226, with SN12C, with TK-10 and with UACC-257 was > 100 µM (inactive) throughout. For the same compound, the GI50 with UACC-62 and in the test with UO-31 was > 100 µM (inactive) in each case.
